Legend:
[1] = test system: C-myc quadruplex (DNA, G4) TGGGGAGGGTGGGGAGGGTGGGGAAGG; assay: circular dichroism titration; settings: K+ 100 mM (KCl); 10 mM Tris-HCl, 0.1 mM EDTA, pH 7.5, 20 °C; 10 µM strand; induced CD only above ratio two
[2] = test system: C-myc quadruplex (DNA, G4) TGGGGAGGGTGGGGAGGGTGGGGAAGG; assay: fluorescent intercalator displacement titration; settings: K+ 100 mM (KCl); 10 mM Tris-HCl, 0.1 mM EDTA, pH 7.5; thiazole orange displaced
[3] = test system: C-myc quadruplex (DNA, G4) TGGGGAGGGTGGGGAGGGTGGGGAAGG; assay: UV-Vis absorption (hypochromism, 19 nm bathochromic shift); settings: K+ 100 mM (KCl); 10 mM Tris-HCl, 0.1 mM EDTA, pH 7.5, 22–24 °C; 5 µM DNA, 5 µM ligand
[4] = test system: TFO C-myc duplex (Table 2: C-myc duplex) (DNA, duplex) AGGGAGGGAGGTAAGAAAAAGGG/CCCTTTTTCTTACCTCCCTCCCT; assay: FID screen (thiazole orange displacement, single concentration); settings: K+ 100 mM (KCl); 10 mM Tris-HCl, 0.1 mM EDTA, pH 7.5, 21–23 °C; 0.25 µM duplex, 0.50 µM TO, ligand 1:1
[5] = test system: C-myc quadruplex (DNA, G4) TGGGGAGGGTGGGGAGGGTGGGGAAGG; assay: fluorescence titration; settings: K+ 100 mM (KCl); 10 mM Tris-HCl, 0.1 mM EDTA, pH 7.5

| binding [1] | DC50 [2] | binding [3] | binding [4] | binding [5] | SMILES |
| --- | --- | --- | --- | --- | --- |
| yes | 1.58 ± 0.01 µM | yes | yes | – | CN1CCN(c2ccc3nc(-c4ccc5nc(-c6ccc(O)cc6)[nH]c5c4)[nH]c3c2)CC1 |
| – | > 5.5 µM | – | – | – | NC[C@@H]1O[C@H](O[C@H]2[C@@H](O)[C@H](O[C@@H]3[C@@H](O)[C@H](N)C[C@H](N)[C@H]3O[C@H]3O[C@H](CN)[C@@H](O)[C@H](O)[C@H]3N)O[C@@H]2CO)[C@H](N)[C@@H](O)[C@@H]1O |
| – | – | – | – | yes | CN1C(=Cc2cc[n+](C)c3ccccc23)Sc2ccccc21 |

From article PMC6270413 (2013)
